# Results as given in publication PMC7044277 (Nature Communications, 2020).
# “And” between values parts separate entries of the source, which are not always exact repeats. Equal values may be shown once.
# How the values were obtained:
# [1] = biological target: T1, DRD4 (D4.4 variant) wild-type (Homo sapiens, UniProt P21917); assay: Radioligand competition binding, [3H]-N-methylspiperone; details: DRD4; [3H]-methylspiperone (0.8-1.0 nM); read-out: Ki
# T1 sequence (P21917 1-419): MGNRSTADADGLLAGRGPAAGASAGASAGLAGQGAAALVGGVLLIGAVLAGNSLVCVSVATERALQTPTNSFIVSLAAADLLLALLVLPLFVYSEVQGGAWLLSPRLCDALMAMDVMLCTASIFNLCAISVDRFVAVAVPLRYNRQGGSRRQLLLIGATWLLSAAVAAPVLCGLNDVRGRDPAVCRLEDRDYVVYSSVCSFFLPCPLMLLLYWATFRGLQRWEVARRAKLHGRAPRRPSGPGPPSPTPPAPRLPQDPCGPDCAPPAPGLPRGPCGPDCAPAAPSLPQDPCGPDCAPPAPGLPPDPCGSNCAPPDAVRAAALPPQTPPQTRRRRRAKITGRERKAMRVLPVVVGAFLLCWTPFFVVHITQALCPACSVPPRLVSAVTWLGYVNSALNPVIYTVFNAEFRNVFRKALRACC
# [2] = biological target: DRD3 (Homo sapiens, UniProt P35462); assay: Gαi/o-mediated cAMP inhibition (GloSensor); assay type: cell-based; details: DRD3, cAMP inhibition
# DRD3, sequence (P35462 whole entry): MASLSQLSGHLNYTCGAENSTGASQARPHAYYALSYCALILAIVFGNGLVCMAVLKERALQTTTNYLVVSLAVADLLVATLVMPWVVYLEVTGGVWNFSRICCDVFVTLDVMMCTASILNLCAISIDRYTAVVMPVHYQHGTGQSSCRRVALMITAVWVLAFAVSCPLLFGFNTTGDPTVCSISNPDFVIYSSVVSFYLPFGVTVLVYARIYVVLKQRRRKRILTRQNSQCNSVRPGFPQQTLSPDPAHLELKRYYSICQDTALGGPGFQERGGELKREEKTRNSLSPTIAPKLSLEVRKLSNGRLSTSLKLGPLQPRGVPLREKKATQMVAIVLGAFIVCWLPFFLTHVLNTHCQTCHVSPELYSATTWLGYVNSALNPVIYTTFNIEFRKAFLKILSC
# [3] = biological target: T2, DRD2 S1935.42G (Homo sapiens, UniProt P14416, S193G); assay: Gαi/o-mediated cAMP inhibition (GloSensor), mutant; assay type: cell-based; details: DRD2 Ser5.42Gly; G-protein assay
# T2 construct: expressed in transfected cells; host or cells: HEK293T (ATCC CRL-11268)
# T2 sequence (P14416 whole entry S193G): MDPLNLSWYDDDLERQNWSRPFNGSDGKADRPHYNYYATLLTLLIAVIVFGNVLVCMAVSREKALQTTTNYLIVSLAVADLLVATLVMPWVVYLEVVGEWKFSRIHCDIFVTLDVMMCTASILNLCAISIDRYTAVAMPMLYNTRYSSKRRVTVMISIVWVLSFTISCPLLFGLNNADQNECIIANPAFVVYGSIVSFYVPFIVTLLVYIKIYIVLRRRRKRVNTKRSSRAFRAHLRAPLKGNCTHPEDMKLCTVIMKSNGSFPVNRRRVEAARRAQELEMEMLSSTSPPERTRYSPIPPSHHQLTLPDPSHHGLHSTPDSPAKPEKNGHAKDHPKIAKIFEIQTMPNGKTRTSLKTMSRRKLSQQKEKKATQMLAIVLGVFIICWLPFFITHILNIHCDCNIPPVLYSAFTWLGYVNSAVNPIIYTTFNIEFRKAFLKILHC
# [4] = biological target: DRD1 (Homo sapiens, UniProt P21728); assay: β-arrestin2 recruitment (Tango); assay type: cell-based; details: agonist mode
# DRD1, sequence (P21728 whole entry): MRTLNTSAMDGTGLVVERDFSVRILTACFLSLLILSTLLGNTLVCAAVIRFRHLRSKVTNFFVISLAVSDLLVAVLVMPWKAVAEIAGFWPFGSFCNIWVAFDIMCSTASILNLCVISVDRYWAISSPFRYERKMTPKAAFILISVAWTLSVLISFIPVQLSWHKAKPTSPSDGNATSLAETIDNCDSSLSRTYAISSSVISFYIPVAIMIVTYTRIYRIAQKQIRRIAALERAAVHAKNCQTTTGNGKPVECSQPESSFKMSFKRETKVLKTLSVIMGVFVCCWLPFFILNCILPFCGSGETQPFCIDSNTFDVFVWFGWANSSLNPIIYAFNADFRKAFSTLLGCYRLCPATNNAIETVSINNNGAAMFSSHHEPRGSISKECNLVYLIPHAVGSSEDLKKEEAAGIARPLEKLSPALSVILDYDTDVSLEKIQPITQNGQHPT
# [5] = biological target: DRD5 (Homo sapiens, UniProt P21918); assay: β-arrestin2 recruitment (Tango); assay type: cell-based; details: Fig_S10e, single replicates
# DRD5, sequence (P21918 whole entry): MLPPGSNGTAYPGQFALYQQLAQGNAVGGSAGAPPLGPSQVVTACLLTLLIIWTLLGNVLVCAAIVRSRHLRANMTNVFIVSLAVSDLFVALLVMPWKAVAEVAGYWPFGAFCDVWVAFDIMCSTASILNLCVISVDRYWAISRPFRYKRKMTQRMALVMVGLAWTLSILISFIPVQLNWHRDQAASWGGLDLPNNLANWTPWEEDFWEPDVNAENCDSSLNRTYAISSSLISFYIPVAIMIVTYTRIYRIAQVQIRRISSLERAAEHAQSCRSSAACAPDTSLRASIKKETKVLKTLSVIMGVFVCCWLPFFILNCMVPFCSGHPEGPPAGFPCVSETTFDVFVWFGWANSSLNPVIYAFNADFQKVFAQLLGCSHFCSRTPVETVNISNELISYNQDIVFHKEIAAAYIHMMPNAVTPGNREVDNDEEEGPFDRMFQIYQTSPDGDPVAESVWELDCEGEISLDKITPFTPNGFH
# [6] = biological target: T3, 5HT1F (Homo sapiens, UniProt P30939); assay: β-arrestin2 recruitment (Tango); assay type: cell-based; details: Fig_S10j
# T3 construct: expressed in transfected cells; host or cells: HTLA cells expressing TEV-fused β-arrestin2
# T3 sequence (P30939 1-366): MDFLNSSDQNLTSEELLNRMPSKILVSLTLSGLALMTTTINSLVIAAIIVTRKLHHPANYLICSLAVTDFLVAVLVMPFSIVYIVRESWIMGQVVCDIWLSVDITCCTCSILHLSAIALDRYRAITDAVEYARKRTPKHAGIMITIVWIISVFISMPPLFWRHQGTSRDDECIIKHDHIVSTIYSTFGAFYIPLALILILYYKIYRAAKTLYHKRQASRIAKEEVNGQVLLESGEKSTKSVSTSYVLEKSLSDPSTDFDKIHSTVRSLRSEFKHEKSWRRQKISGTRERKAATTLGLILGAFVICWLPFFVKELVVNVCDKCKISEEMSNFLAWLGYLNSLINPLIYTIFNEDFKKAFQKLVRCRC
smiles,measurement,setting,value
CCOc1cccc2cc([C@@H](C)NCC3(O)CCCCC3)oc12 [O4RE6],Ki,[1],> 10000 nM
same,EC50,"[2]; agonist, read-out: EC50 ± SEM",7.12 ± 0.08 nM
same,G protein agonist activity,[2],partial agonist
same,Emax,[2]; read-out: Emax relative to quinpirole response,52.4%
same,agonism after serine to glycine substitution,[3],impaired
same,"Fig_S10d concentration-response source data, compound alone (replicates)",[4]; Log[Drug] -6.52,1.905
same,"Fig_S10d concentration-response source data, compound alone (replicates)",[4]; Log[Drug] -7,1.064 and 2.282 and -0.6391 and 0.289 and -0.08278 and 0.4865 and -0.4054 and 1.577 and 0.01217
same,"Fig_S10d concentration-response source data, compound alone (replicates)",[4]; Log[Drug] -7.52,1.077 and 0.9051 and -0.1158 and 0.04295 and -0.04452 and 0.1062 and 0.53 and 4.578 and 0.07397
same,"Fig_S10d concentration-response source data, compound alone (replicates)",[4]; Log[Drug] -8,0.3903 and 0.04289 and 0.7249 and 0.1109 and 0.1132 and -0.0164 and 0.2378 and 0.7481 and 0.5777
same,"Fig_S10d concentration-response source data, compound alone (replicates)",[4]; Log[Drug] -8.52,1.047 and 2.106 and 1.068 and 0.04686 and -0.2007 and -0.1148 and -0.01592 and 0.004682 and 0.05431
same,"Fig_S10d concentration-response source data, compound alone (replicates)",[4]; Log[Drug] -9,0.3903 and 1.591 and 1.077 and 0.9231 and 0.04452 and 0.3311 and -0.4785 and 2.978 and 0.1554
same,"Fig_S10d concentration-response source data, compound alone (replicates)",[4]; Log[Drug] -9.52,0.3689 and -0.1244 and 0.7292 and 0.2936 and 0.3303 and 0.01406 and 0.5824 and 0.412 and 0.617
same,"Fig_S10d concentration-response source data, compound alone (replicates)",[4]; Log[Drug] -10,7.429 and 0.8836 and 0.03432 and 0.6724 and -0.1109 and 0.4569 and -0.09176 and 0.9157 and -0.1386
same,"Fig_S10d concentration-response source data, compound alone (replicates)",[4]; Log[Drug] -10.52,-0.3217 and 1.253 and 1.072 and 0.2647 and -0.2624 and -0.04452 and -0.9541 and 0.426 and 0.1283
same,"Fig_S10d concentration-response source data, compound alone (replicates)",[4]; Log[Drug] -11,0.05147 and 1.072 and 2.964 and 0.7974 and -0.07497 and -0.2936 and -0.2444 and 1.441 and -0.4363
same,"Fig_S10d concentration-response source data, compound alone (replicates)",[4]; Log[Drug] -11.52,1.244 and 0.2102 and -0.6649 and -0.01562 and -0.1695 and 0.02187 and -0.1648 and 0.6545 and -0.5449
same,"Fig_S10d concentration-response source data, compound alone (replicates)",[4]; Log[Drug] -12,0.04289 and 4.504 and 6.396 and -0.1351 and 0.3358 and -0.1991 and -0.1554 and -0.2734 and -0.1919
same,"β-arrestin2 recruitment response, agonist mode (normalized)",[5]; Log[Drug] -6.52,3.307
same,"β-arrestin2 recruitment response, agonist mode (normalized)",[5]; Log[Drug] -7,3.556 and 3.7037 and 0.3329 and 4.539 and 1.619 and 0.7476 and 0.7305 and 1.517 and 0.06412
same,"β-arrestin2 recruitment response, agonist mode (normalized)",[5]; Log[Drug] -7.52,3.831 and -0.7608 and 1.183 and 2.699 and 1.3394 and 0.2373 and -0.5855 and 0.1756 and 0.6817
same,"β-arrestin2 recruitment response, agonist mode (normalized)",[5]; Log[Drug] -8,-0.354 and 4.126 and 1.796 and 1.252 and 1.785 and 1.286 and -0.552 and 0.7932 and 1.175
same,"β-arrestin2 recruitment response, agonist mode (normalized)",[5]; Log[Drug] -8.52,4.945 and 4.734 and 2.002 and 0.8283 and 1.858 and 0.3616 and -0.1241 and 0.7932 and 0.1701
same,"β-arrestin2 recruitment response, agonist mode (normalized)",[5]; Log[Drug] -9,-0.5336 and 1.162 and 2.8425 and 2.532 and 0.2334 and 1.094 and -1.004 and 0.5702 and 1.069
same,"β-arrestin2 recruitment response, agonist mode (normalized)",[5]; Log[Drug] -9.52,1.189 and -0.1004 and 3.714 and 0.519 and 0.6511 and 2.841 and 3.8684 and 0.6677 and 1.209
same,"β-arrestin2 recruitment response, agonist mode (normalized)",[5]; Log[Drug] -10,1.189 and -0.7027 and -2.2032 and 1.378 and 0.875 and 0.4502 and -0.1213 and -0.3875 and 2.24
same,"β-arrestin2 recruitment response, agonist mode (normalized)",[5]; Log[Drug] -10.52,0.7608 and -0.5125 and 1.416 and 1.597 and 1.308 and 1.974 and 3.531 and 1.161 and 0.5451
same,"β-arrestin2 recruitment response, agonist mode (normalized)",[5]; Log[Drug] -11,-0.3117 and 1.606 and -1.358 and 0.3916 and 1.977 and 2.8 and -0.009758 and 3.703 and 3.711
same,"β-arrestin2 recruitment response, agonist mode (normalized)",[5]; Log[Drug] -11.52,-1.77 and 3.926 and 0.7503 and 1.5356 and 0.746 and 0.6788 and -0.4001 and 8.516 and 5.095
same,"β-arrestin2 recruitment response, agonist mode (normalized)",[5]; Log[Drug] -12,-0.9088 and 2.256 and -1.342 and 2.237 and 0.341 and 1.2057 and -1.023 and 0.1729 and 0.8517
same,"β-arrestin2 recruitment response, agonist mode (single replicate values)",[6]; Log[Drug] -8,-0.9904 and 0.5932 and 0.4069 and -0.749 and -2.5023 and -1.954 and -1.184 and -1.248 and -0.2773
same,"β-arrestin2 recruitment response, agonist mode (single replicate values)",[6]; Log[Drug] -8.52,0.3187 and 0.8997 and 1.294 and 0.7694 and -1.144 and -0.1941 and 0.6567 and 0.7348 and -0.5451
same,"β-arrestin2 recruitment response, agonist mode (single replicate values)",[6]; Log[Drug] -9,0.2574 and -0.174 and 0.01716 and -1.454 and -1.951 and -2.373 and 1.634 and -1.575 and -0.4734
same,"β-arrestin2 recruitment response, agonist mode (single replicate values)",[6]; Log[Drug] -9.52,-0.956 and -0.4682 and 0.01716 and 8.249 and -1.726 and -1.835 and -1.503 and -0.6631 and 0.5435
same,"β-arrestin2 recruitment response, agonist mode (single replicate values)",[6]; Log[Drug] -10,2.1842 and 2.2749 and -0.3922 and 0.1736 and 1.58 and -1.964 and -1.621 and -1.4329 and 0.0271
same,"β-arrestin2 recruitment response, agonist mode (single replicate values)",[6]; Log[Drug] -10.52,0.6104 and 0.6079 and -0.2672 and -0.6094 and -0.8784 and -1.423 and 0.2215 and -0.4766 and -0.1562
same,"β-arrestin2 recruitment response, agonist mode (single replicate values)",[6]; Log[Drug] -11,-0.2991 and -0.7746 and -0.956 and -0.1975 and -1.559 and -1.001 and -0.7953 and -1.428 and -1.442
same,"β-arrestin2 recruitment response, agonist mode (single replicate values)",[6]; Log[Drug] -11.52,9.046 and 4.9 and 0.09315 and 0.6026 and -0.4766 and -1.413 and -2.451 and -1.372 and 1.5094
same,"β-arrestin2 recruitment response, agonist mode (single replicate values)",[6]; Log[Drug] -12,-1.25 and -0.8555 and 2.1082 and 1.035 and 1.318 and -2.3525 and 0.1164 and 0.6822 and -0.7969
